Reference: patent US11340226B2, “Squalene epoxidase in the diagnosis and treatment of non-alcoholic fatty liver diseases” (priority 2018, dated 2022)

Legend:
HKCI10 [1] = assay: Cell growth, cell viability (MTS) assay; assay type: cell-based; conditions: 25 μM to 50 μM
Experimental: (§1) 2 NAFLD-HCC cell lines (HKCI2, HKCI10) and one liver cancer cell line HepG2 were used in this study. Cell lines were maintained in RPMI-1640 or DMEM medium (Gibco BRL, Rockville, Md.) with 10% fetal bovine serum.
(§2) Cell viability was determined by the 3-(4,5-dimethylthiazol-2-yl)-5-(3-carboxyme-thoxyphenyl)-2-(4-sulfophenyl)-2H-tetrazolium (MTS) assay (Promega, Madison, Wis.).

[2] = tested on: orthotopic HKCI2 xenografts; assay: Orthotopic HKCI2 xenograft (human NAFLD-HCC) nude mice model; assay type: in vivo, Balb/c nude mice
Experimental: An orthotopic human NAFLD-HCC mouse model was established using HKCI2 cells. HKCI2 cells (1×10^7 cells in 0.1 ml PBS) were injected subcutaneously into the left dorsal flank of 4-week-old male Balb/c nude mice. Subcutaneous tumors were harvested once they reached about 10 mm^3 and cut into 1.0 mm^3 pieces. One piece of a tumor was implanted into the left liver lobe in a separate group of nude mice (4-week-old). Four weeks after implantation, these mice were divided into vehicle group (PBS, p.o.) and terbinafine group (80 mg/kg, p.o.). Eight weeks post-implantation, the mice were sacrificed and examined. 10^6 cells or 2 mg tissues were harvested, and cholesterol/cholesteryl ester levels were detected by Cholesterol/Cholesteryl Ester Quantification kit (ab65359, Abcam) according to manufacturer's instructions. All experiments were conducted three times in triplicates. Results were shown as the means±SEM.

[3] = tested on: Sqle tg mice fed with a HFHC diet; assay: NASH development in HFHC-fed Sqle tg mice; assay type: in vivo
Experimental: (§3) WT and Sqle Tg mice were fed with normal diet (18% fat, 58% carbohydrate, 24% protein, 0% cholesterol) or high fat high cholesterol (HFHC: 43.7% fat, 36.6% carbohydrate, 19.7% protein, 0.203% cholesterol) diets (Specialty Feeds, Glen Forrest, Wash.) ad libitum for different time point to generate spontaneous NAFLD model and diet-induced NASH model. 2 mg tissues were harvested, and liver cholesterol levels were detected by Cholesterol/Cholesteryl Ester Quantification kit (ab65359, Abcam) according to manufacturer's instructions. All experiments were conducted three times in triplicates. Results were shown as the means±SEM. 100 mg tissues were harvested, and liver triglyceride levels were detected by triglyceride Quantification kit (ab65336, Abcam) according to manufacturer's instructions. All experiments were conducted three times in triplicates. Results were shown as the means±SEM. Sqle tg mice and their wild-type littermates (WT) were fed a high fat high cholesterol diet at the age of 6 weeks. At 17 weeks of age (Sqle tg mice) or 24 weeks of age (WT mice), the mice will be randomized into two group and treated with either vehicle or Terbinafine (80 mg/kg/d, oral gavage). After 8 (WT mice) or 9 weeks (Sqle tg mice) terbinafine treatment, mice will be sacrificed to examine the therapeutic effect of Terbinafine. Assessment of NAFLD: Liver histology were evaluated at sacrifice using H&E staining. Assessment of inflammation: Liver damage were determined using serum ALT and AST. PCR and cytokine arrays were used to evaluate expression of pro-inflammatory cytokines. Assessment of metabolic syndrome: Insulin tolerance tests and glucose tolerance tests will be determined as described above. 20 mg tissues were harvested, and liver […] Quantification kit (ab65341, Abcam) according to manufacturer's instructions. All experiments were conducted three times in triplicates. Results were shown as the means±SEM. The serum cholesterol, TG, ALT and AST level were detected by the Catalyst One Chemistry Analyzer according to the manufacturer's instructions (IDEXX, USA). Thirty microliters of serum from wild-type or Sqle tg mice were diluted to 90 μl by physiological saline buffer. The diluted samples and specific slides (cholesterol, ALT and AST) were then loaded into the analyzer for automatic analysis. For the glucose tolerance test, mice were fasted overnight by transferring mice to clean cages with no food or feces in upper or bottom of cage. Mice were then injected intraperitoneally with 0.75 U insulin per kg body weight (ITT) or 1 g glucose per kg body weight (GTT) in water. Blood from the tail vein was obtained before the injection and at 30, 60 and 90 min after the injection for determination of blood glucose using Glucose Meter.

HepG2 xenografts = assay: Subcutaneous HepG2 xenograft nude mice model; assay type: in vivo, Balb/c nude mice
Experimental: A xenograft human liver cancer mouse model was established using HepG2 cells. HepG2 cells (1×10^7 cells in 0.1 ml PBS) were injected subcutaneously into the left dorsal flank of 4-week-old male Balb/c nude mice. Once the subcutaneous tumors reached about 100 mm^3, these mice were divided into vehicle group (PBS, p.o.) and terbinafine group (80 mg/kg, p.o.) randomly. Tumor diameter was measured every days for 10 days. For survival analysis, tumor diameter was measured every two days for 40 days. Tumor volume (mm^3) was estimated by measuring the longest and shortest diameter of the tumor and calculating as follows: volume=(shortest diameter)^2×(longest diameter)×0.5. Care of animals and all experimental procedures were approved by the Animal Ethics Committee of the Chinese University of Hong Kong. After more than 2 weeks, the mice were sacrificed, and the tumors were weighed and fixed in formalin for histological analysis. […]
(§4) 10^6 cells or 2 mg tissues were harvested, and cholesterol/cholesteryl ester levels were detected by Cholesterol/Cholesteryl Ester Quantification kit (ab65359, Abcam) according to manufacturer's instructions. All experiments were conducted three times in triplicates. Results were shown as the means±SEM.

HepG2 [4] = assay: Cell growth, cell viability (MTS) assay; assay type: cell-based, human; conditions: 25 μM to 50 μM
Experimental: as §1, §2

HKCI2 [5] = assay: Cell growth, cell viability (MTS) assay; assay type: cell-based, human; conditions: 25 μM to 50 μM
Experimental: as §1, §2

HKCI10 [6] = assay: Colony formation assay; assay type: cell-based; conditions: 25 μM to 50 μM
Experimental: as §1
(§5) For cell colony formation assay, liver cancer cells (1000/well) were plated in 6-well plates. Different dose of Terbinafine were added to these cells at the second day. After culturing for 5-7 days, cells were fixed with 70% ethanol and stained with 0.5% crystal violet solution. Colonies with more than 50 cells per colony were counted. All experiments were conducted three times in triplicates.

HFHC-fed WT mice = assay: HFHC-induced NAFLD in WT mice; assay type: in vivo
Description: as §3, with “model.” for “model. 2 mg tissues were harvested, and liver cholesterol levels were detected by Cholesterol/Cholesteryl Ester Quantification kit (ab65359, Abcam) according to manufacturer's instructions. All experiments were conducted three times in triplicates. Results were shown as the means±SEM. 100 mg tissues were harvested, and liver triglyceride levels were detected by triglyceride Quantification kit (ab65336, Abcam) according to manufacturer's instructions. All experiments were conducted three times in triplicates. Results were shown as the means±SEM.”, “analysis.” for “analysis. For the glucose tolerance test, mice were fasted overnight by transferring mice to clean cages with no food or feces in upper or bottom of cage. Mice were then injected intraperitoneally with 0.75 U insulin per kg body weight (ITT) or 1 g glucose per kg body weight (GTT) in water. Blood from the tail vein was obtained before the injection and at 30, 60 and 90 min after the injection for determination of blood glucose using Glucose Meter.”

SQLE and PCNA expression = assay: Western blot of SQLE and PCNA expression in treated cells; assay type: cell-based
HepG2 [7] = assay: Colony formation assay; assay type: cell-based, human; conditions: 25 μM to 50 μM
Experimental: as §1, §5

HKCI2 [8] = assay: Colony formation assay; assay type: cell-based, human; conditions: 25 μM to 50 μM
Experimental: as §1, §5

[9] = tested on: Sqle tg mice injected with DEN and fed with a HFHC diet; assay type: in vivo
Experimental: Sqle tg mice injected with DEN (10 days of age) and fed with a HFHC diet (6 weeks of age). At 20 weeks of age, the mice will be randomized into two group and treated with either vehicle or Terbinafine (80 mg/kg/d, oral gavage). After 8 weeks terbinafine treatment, mice will be sacrificed to examine the therapeutic effect of Terbinafine. […]
The serum cholesterol, TG, ALT and AST level were detected by the Catalyst One Chemistry Analyzer according to the manufacturer's instructions (IDEXX, USA). Thirty microliters of serum from wild-type or Sqle tg mice were diluted to 90 μl by physiological saline buffer. The diluted samples and specific slides (cholesterol, ALT and AST) were then loaded into the analyzer for automatic analysis. […]

HCC cell lines = assay: Cholesterol/cholesteryl ester levels in cells; assay type: cell-based
Experimental: as §4

[10] = 80 mg/kg/d oral gavage, 9 weeks
[11] = subcutaneous HepG2 xenografts, 80 mg/kg/d, p.o.
[12] = 80 mg/kg/d oral gavage, 8 weeks
[13] = DEN-injected HFHC-fed Sqle tg mice
[14] = livers of Sqle tg mice, western blot

In the case of `CN(C/C=C/C#CC(C)(C)C)Cc1cccc2ccccc12` [terbinafine], the “cell lines proliferation by cell growth assay” value (HKCI10 [1]) is reported as “markedly suppressed”, the “suppression of growth of orthotopic HKCI2 xenografts” value ([2]; 80 mg/kg, p.o., both in terms of tumor size or tumor weight, P<0.01) is reported as over 85% and the “tumor cholesteryl ester levels” value ([2]; HKCI2 xenografts) is reported as “suppressed”. For the same molecule, the “tumor free cholesterol levels” value ([2]; HKCI2 xenografts) was “suppressed”, the “insulin sensitivity (ITTs)” value [3] was “markedly improved” and the liver cholesterol level [3] was “significantly decreased”. The “liver free fatty acid accumulation” value [3] was “significantly decreased”, the liver triglyceride [3] was “significantly decreased” and the “serum ALT level” value [3] was “significantly decreased”. For the same molecule, the “serum AST level” value [3] was “significantly decreased”, the serum triglyceride [3] was “significantly decreased” and the body weight gain [3, 10] was “significantly attenuated”. The liver weight [3, 10] was “significantly attenuated”, the liver/body weight ratio [3, 10] was “significantly attenuated” and the “liver inflammation and fibrosis level (mRNA expression of inflammation and fibrosis mediators)” value ([3]; qPCR) was “reduced”. For the same molecule, the “steatohepatitis (H&E staining of livers)” value ([3]; vs PBS control) was “reduction”, the “suppression of growth of subcutaneous HepG2 xenografts” value (HepG2 xenografts; 80 mg/kg, p.o., P<0.01) was 77.8% and the “tumor cholesteryl ester levels” value (HepG2 xenografts; HepG2 xenografts) was “suppressed”. The “tumor free cholesterol levels” value (HepG2 xenografts; HepG2 xenografts) was “suppressed”, the tumor volume (HepG2 xenografts; [11]) was “significant reductions” and the tumor weight (HepG2 xenografts; [11]) was “significant reductions”. For the same molecule, the “overall survival of mice harboring HepG2 xenografts” value (HepG2 xenografts; tumor size 400 mm^3 as cutoff, P<0.01) was “significantly prolonged”, the “cell lines proliferation by cell growth assay” value (HepG2 [4]) was “markedly suppressed” and the “cell lines proliferation by cell growth assay” value (HKCI2 [5]) was “markedly suppressed”. For the same molecule, the “cell lines proliferation by colony formation assay” value (HKCI10 [6]) was “markedly suppressed”, the HFHC-induced serum cholesterol (HFHC-fed WT mice) was “attenuated” and the “liver steatosis (H&E staining and free fatty acid assay)” value (HFHC-fed WT mice) was “reduction”. For the same molecule, the “serum ALT level” value (HFHC-fed WT mice) was “attenuated”, the “serum AST level” value (HFHC-fed WT mice) was “attenuated” and the serum triglyceride (HFHC-fed WT mice) was “attenuated”. The body weight (HFHC-fed WT mice; [12]) was “significantly decrease”, the liver weight (HFHC-fed WT mice; [12]) was “significantly decrease” and the PCNA expression (SQLE and PCNA expression) was “suppressed”. For the same molecule, the SQLE expression (SQLE and PCNA expression) was “suppressed”, the “cell lines proliferation by colony formation assay” value (HepG2 [7]) was “markedly suppressed” and the “cell lines proliferation by colony formation assay” value (HKCI2 [8]) was “markedly suppressed”. The tumor number ([9]; 80 mg/kg/d oral gavage, 8 weeks, P<0.01) was “significantly reduced”, the tumor incidence ([9]; 80 mg/kg/d oral gavage, 8 weeks, vs 8/9 mice in PBS, P<0.05) was 4/9 and the “NADP^+/NADPH ratio” value [9, 13] was “reducing”. For the same molecule, the liver cholesterol levels [9, 13] was “decreased”, the liver/body weight ratio [9, 13] was “decreased” and the serum cholesterol levels [9, 13] was “decreased”. The Dnmt3a protein expression [9, 14] was “inhibited”, the Pten expression [9, 14] was “restored” and the Sqle protein expression [9, 14] was “inhibited”. For the same molecule, the “HCC tumorigenesis and cell proliferation (H&E and Ki-67 staining of livers)” value ([9]; vs vehicle) was “reduction”, the cholesteryl ester levels (HCC cell lines) was “suppressed” and the free cholesterol levels (HCC cell lines) was “suppressed”.
